# Measurements from the NIST ThermoML archive (doi:10.1016/j.jct.2006.03.009).
# ± gives the expanded uncertainty stated by the source.
# Test: cn = amount concentration of the nth substance listed, in mol/dm3
# Conditions: Liquid; for mass density: 7 kPa, Pycnometric method; for speed of sound: 101 kPa
smiles,measurement,setting,value
O=[N+]([O-])[O-].[K+] [potassium nitrate] + O,mass density,"303.15 K, c1 = 1",1052.9 ± 0.4 kg/m3
same,speed of sound,"303.15 K, c1 = 1",1541.8 ± 3.3 m/s
same,mass density,"308.15 K, c1 = 1",1051.1 ± 0.4 kg/m3
same,speed of sound,"308.15 K, c1 = 1",1550.2 ± 3.3 m/s
same,mass density,"313.15 K, c1 = 1",1049 ± 0.5 kg/m3
same,speed of sound,"313.15 K, c1 = 1",1557.4 ± 3.3 m/s
same,mass density,"318.15 K, c1 = 1",1046.7 ± 0.5 kg/m3
same,speed of sound,"318.15 K, c1 = 1",1563.6 ± 3.3 m/s
same,mass density,"323.15 K, c1 = 1",1044.2 ± 0.5 kg/m3
same,speed of sound,"323.15 K, c1 = 1",1568.4 ± 3.3 m/s
[Cl-].[K+] [potassium chloride] + O,mass density,"303.15 K, c1 = 1.5",1061.4 ± 0.4 kg/m3
same,speed of sound,"303.15 K, c1 = 1.5",1584 ± 3.3 m/s
same,mass density,"308.15 K, c1 = 1.5",1059.7 ± 0.5 kg/m3
same,speed of sound,"308.15 K, c1 = 1.5",1590.4 ± 3.3 m/s
same,mass density,"313.15 K, c1 = 1.5",1057.8 ± 0.5 kg/m3
same,speed of sound,"313.15 K, c1 = 1.5",1595.8 ± 3.4 m/s
same,mass density,"318.15 K, c1 = 1.5",1055.6 ± 0.5 kg/m3
same,speed of sound,"318.15 K, c1 = 1.5",1601.6 ± 3.4 m/s
same,mass density,"323.15 K, c1 = 1.5",1053.3 ± 0.5 kg/m3
same,speed of sound,"323.15 K, c1 = 1.5",1606.2 ± 3.4 m/s
O=S(=O)([O-])[O-].[K+].[K+] [potassium sulfate] + O,mass density,"303.15 K, c1 = 0.5",1059.3 ± 0.4 kg/m3
same,speed of sound,"303.15 K, c1 = 0.5",1571.2 ± 3.3 m/s
same,mass density,"308.15 K, c1 = 0.5",1057.9 ± 0.5 kg/m3
same,speed of sound,"308.15 K, c1 = 0.5",1578.8 ± 3.3 m/s
same,mass density,"313.15 K, c1 = 0.5",1056.1 ± 0.5 kg/m3
same,speed of sound,"313.15 K, c1 = 0.5",1587.6 ± 3.3 m/s
same,mass density,"318.15 K, c1 = 0.5",1054.2 ± 0.5 kg/m3
same,speed of sound,"318.15 K, c1 = 0.5",1592.6 ± 3.3 m/s
same,mass density,"323.15 K, c1 = 0.5",1051.9 ± 0.5 kg/m3
same,speed of sound,"323.15 K, c1 = 0.5",1597.6 ± 3.4 m/s
